Measurements reported in patent US9718790B2, “Triazine derivative and pharmaceutical composition having an analgesic activity comprising the same” (SHIONOGI & CO., LTD., priority 2010, dated 2017).

What follows are molecules tested against human P2X3 receptor (Homo sapiens (Human), UniProt P56373) (assay: Evaluation of human P2X3 receptor inhibitory activity (Fluo-3 calcium fluorescence, FDSS 3000, ATP stimulation)). Details: C6BU-1 cells stably expressing human P2X3 receptor.
Assay type: cell-based
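Note: stimulus was 50 nM ATP with fluorescence followed for 3 min, and the response per well was peak post-ATP fluorescence divided by the reading at measurement start.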

Chain of human P2X3 receptor (P56373 whole entry): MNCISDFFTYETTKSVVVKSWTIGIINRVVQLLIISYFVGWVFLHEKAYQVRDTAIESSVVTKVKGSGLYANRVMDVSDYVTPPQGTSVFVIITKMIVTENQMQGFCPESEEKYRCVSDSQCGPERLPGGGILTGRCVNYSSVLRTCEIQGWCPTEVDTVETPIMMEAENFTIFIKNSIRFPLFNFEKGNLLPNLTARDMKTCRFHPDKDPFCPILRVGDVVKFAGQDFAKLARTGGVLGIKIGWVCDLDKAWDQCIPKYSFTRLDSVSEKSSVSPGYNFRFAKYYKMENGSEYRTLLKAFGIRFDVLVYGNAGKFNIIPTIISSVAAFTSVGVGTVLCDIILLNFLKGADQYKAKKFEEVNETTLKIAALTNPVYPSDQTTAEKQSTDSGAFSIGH

Structure (SMILES)	IC50 [nM]
Cc1ccc(Cn2c(=O)[nH]c(=O)[nH]/c2=N\c2ccc(Oc3cncc(C(=O)O)c3)cc2)cc1 [Compound I-2102]	34
Cc1ccc(Cn2c(=O)n(C[C@H](C)C(=O)O)c(=O)[nH]/c2=N\c2cnc(OC3CCC3)c(Cl)c2)cc1 [Compound I-1410]	56
Cc1cc(Oc2ccc(/N=c3\[nH]c(=O)n(CCC(=O)O)c(=O)n3CC3CCC(C)CC3)cc2)ccn1 (stereo not shown) [Compound I-1976]	17
NC(=O)Cn1c(=O)[nH]/c(=N\c2ccc(OC3CCC3)cc2)n(Cc2ccc(Cl)cc2)c1=O [Compound I-1946]	25
COC(=O)[C@@H](C)Cn1c(=O)[nH]/c(=N\c2ccc(Oc3cc(C)nc(C)c3)cc2)n(Cc2ccc(C)cc2)c1=O [Compound I-1240]	18
CC(C)Oc1ccc(/N=c2\[nH]c(=O)n(CC(=O)NCC3CCOCC3)c(=O)n2Cc2ccc(Cl)cc2)cc1Cl [Compound I-0664]	6
Cc1ccc(Cn2c(=O)n(CCC(=O)O)c(=O)[nH]/c2=N\c2ccc(OC3CCC3)c(C)c2)cc1 [Compound I-1406]	64
CC(C)Oc1ccc(/N=c2\[nH]c(=O)n(CCC(=O)O)c(=O)n2CC2CCCCCCC2)cc1F [Compound I-1916]	995
CCOC(=O)CCn1c(=O)[nH]/c(=N\c2ccc(CC(C)C)c(OC)c2)n(Cc2ccc(C)cc2)c1=O [Compound I-1361]	15
CC[C@H](CC(=O)OC)n1c(=O)[nH]/c(=N\c2ccc(OC(C)C)c(C)c2)n(Cc2ccc(Cl)cc2)c1=O [Compound I-0783]	65
COC(=O)c1cccc(Oc2ccc(/N=c3\[nH]c(=O)n(C)c(=O)n3Cc3ccc(C)cc3)cc2)c1 [Compound I-2031]	52
CNC(=O)CCn1c(=O)[nH]/c(=N\c2ccc(O[C@H](C)C(F)(F)F)cc2)n(Cc2ccc(Cl)cc2)c1=O [Compound I-1957]	22
CC(C)Oc1ccc(/N=c2\[nH]c(=O)n(CCCCC(=O)O)c(=O)n2Cc2ccc(Cl)cc2)cc1Cl [Compound I-2184]	10
CNC(=O)Cn1c(=O)[nH]/c(=N\c2ccc(OC3CCC3)cc2)n(Cc2ccc(Cl)cc2)c1=O [Compound I-1948]	22
COC(=O)C(C)(C)Cn1c(=O)[nH]/c(=N\c2ccc3c(c2)cc(C)n3C)n(Cc2ccc(Cl)cc2)c1=O [Compound I-0597]	507
CCOC(=O)CCn1c(=O)[nH]/c(=N\c2ccc(Oc3ccncc3)cc2)n(Cc2ccc(Cl)cc2)c1=O [Compound I-1205]	2
CCn1c(=O)[nH]/c(=N\c2ccc(Oc3cncc(C(N)=O)c3)cc2)n(Cc2ccc(F)cc2)c1=O [Compound I-2120]	33
CCOc1ccc(/N=c2\[nH]c(=O)n(C[C@@H](C)C(=O)OC)c(=O)n2CC2CCCCC2)cc1Cl [Compound I-0632]	11
C[C@H](C(=O)O)[C@@H](C)n1c(=O)[nH]/c(=N\c2ccc(N3CCCCC3)cc2)n(Cc2ccc(Cl)cc2)c1=O [Compound I-1458]	25
CC(C)Oc1ccc(/N=c2\[nH]c(=O)n(Cc3ccc(=O)[nH]c3)c(=O)n2Cc2ccc(Cl)cc2)cc1F [Compound I-0649]	21
CC(C)Oc1ccc(/N=c2\[nH]c(=O)n(CCS(=O)(=O)O)c(=O)n2Cc2ccc(Cl)cc2)cc1F [Compound I-0654]	26
CCn1c(=O)[nH]/c(=N\c2ccc(Oc3cncc(C(=O)OC)c3)cc2)n(Cc2ccc(C)cc2)c1=O [Compound I-2076]	7
COC(=O)[C@@H](C)Cn1c(=O)[nH]/c(=N\c2ccc(CC(C)C)c(F)c2)n(Cc2ccc(Cl)cc2)c1=O [Compound I-1254]	45
CCOc1ccc(/N=c2\[nH]c(=O)n(C[C@@H](C)C(=O)O)c(=O)n2CC2CCCCC2)cc1Cl [Compound I-0648]	336

Same assay, conditions: C6BU-1 cells stably expressing human P2X3 receptor, Fluo-3 fluorescence, FDSS 3000

Structure (SMILES)	IC50 [nM]
COC(=O)CN1CCC(Cn2c(=O)[nH]/c(=N\c3ccc(OC(C)C)c(C)c3)n(Cc3ccc(Cl)cc3)c2=O)CC1 [Compound I-1638]	13
C[C@@H](C(=O)O)[C@H](C)n1c(=O)[nH]/c(=N\c2ccc3[nH]c(S)nc3c2)n(Cc2ccc(Cl)cc2)c1=O [Compound I-1822]	332
CCn1c(=O)[nH]/c(=N\c2ccc(Oc3ccnc(C)c3)cc2)n(Cc2ccc(Cl)cc2)c1=O [Compound I-1598]	5
Cc1[nH]c2ccc(/N=c3\[nH]c(=O)n([C@@H](C)[C@@H](C)C(=O)O)c(=O)n3Cc3ccc(Cl)cc3)cc2c1C [Compound I-1771]	14
CC(C)=Cc1ccc(/N=c2\[nH]c(=O)n(C[C@H](C)C(=O)O)c(=O)n2Cc2ccc(Cl)cc2)cc1C [Compound I-0950]	20
O=C(Cn1c(=O)[nH]/c(=N\c2ccc(Oc3ccc(O)nc3)cc2)n(Cc2ccc(Cl)cc2)c1=O)NCCO [Compound I-1902]	8
CC[C@H](C)COc1ccc(/N=c2\[nH]c(=O)n(C[C@H](C)C(=O)OC)c(=O)n2Cc2ccc(C)cc2)cc1 [Compound I-1045]	159
Cc1ccc(Cn2c(=O)n(CCC(=O)O)c(=O)[nH]/c2=N\c2nc3ccccc3s2)cc1 [Compound I-1674]	971
O=C(O)CCn1c(=O)[nH]/c(=N\c2ccc(Oc3ccc(F)cc3)cc2)n(Cc2ccc(Cl)cc2)c1=O [Compound I-1877]	36
COC(=O)[C@@H](C)Cn1c(=O)[nH]/c(=N\c2ccc(CC3CCCC3)cc2)n(Cc2ccc(C)cc2)c1=O [Compound I-1096]	94
COC(=O)CN1CCC(n2c(=O)[nH]/c(=N\c3ccc(OC(C)C)c(C)c3)n(Cc3ccc(Cl)cc3)c2=O)CC1 [Compound I-1639]	14
CCc1cc2cc(/N=c3\[nH]c(=O)n(C[C@H](C)C(=O)OC)c(=O)n3Cc3ccc(Cl)cc3)ccc2o1 [Compound I-1765]	9
CCc1nc2ccc(/N=c3\[nH]c(=O)n(CC(=O)OC)c(=O)n3Cc3ccc(Cl)cc3)cc2s1 [Compound I-1752]	4
COC(=O)[C@@H](C)Cn1c(=O)[nH]/c(=N\c2ccc(OC3CCCC3)nc2)n(Cc2ccc(C)cc2)c1=O [Compound I-1185]	116
Cc1nc2ccc(/N=c3\[nH]c(=O)n(C[C@H](O)CO)c(=O)n3Cc3ccc(Cl)cc3)cc2s1 [Compound I-1618]	8
CCCc1nc2ccc(/N=c3\[nH]c(=O)n([C@@H](C)[C@@H](C)C(=O)O)c(=O)n3Cc3ccc(Cl)cc3)cc2s1 [Compound I-1792]	20
Cc1cc(/N=c2\[nH]c(=O)n(C[C@H](C)C(=O)O)c(=O)n2Cc2ccc(Cl)cc2)ccc1CCC1CC1 [Compound I-1024]	161
O=C(O)c1cc(Oc2ccc(/N=c3\[nH]c(=O)n(CCO)c(=O)n3Cc3ccc(Cl)cc3)cc2)ccn1 [Compound I-1797]	6
Cc1ccc(Cn2c(=O)n(CCC(=O)O)c(=O)[nH]/c2=N\c2cn(C)nc2C(=O)NC(C)C)cc1 [Compound I-1839]	107
Cc1ccc(Cn2c(=O)n(C[C@H](C)C(=O)O)c(=O)[nH]/c2=N\c2ccc(Cl)c(C(F)(F)F)c2)cc1 [Compound I-1003]	229
CCCOc1ccc(/N=c2\[nH]c(=O)n([C@@H](C)[C@@H](C)C(=O)O)c(=O)n2Cc2ccc(C)cc2)cc1 [Compound I-0929]	45

Same assay, conditions: human P2X3 receptor, Test Example 1

Structure (SMILES)	IC50 [nM]
COC(=O)/C=C/c1cccc(Oc2ccc(/N=c3\[nH]c(=O)n(C)c(=O)n3Cc3ccc(C)cc3)cc2)c1 [Compound I-2328]	34
CCn1c(=O)[nH]/c(=N\c2ccc(Oc3ccnc(C#N)c3)cc2)n(Cc2ccc(Cl)cn2)c1=O [Compound I-2372]	32
CC(C)Oc1ccc(/N=c2\[nH]c(=O)n(C(C)(C)CC(=O)O)c(=O)n2Cc2ccc(Cl)cc2)cc1F [Compound I-0830]	89
COCc1c(Cl)cc(/N=c2\[nH]c(=O)n(C[C@H](C)C(=O)O)c(=O)n2Cc2ccc(C)cc2)cc1Cl [Compound I-1501]	11
COC(=O)c1ccc(Oc2ccc(/N=c3\[nH]c(=O)n(C)c(=O)n3Cc3ccc(Cl)cc3)cc2)cn1 [Compound I-2402]	3
O=C(O)Cn1c(=O)[nH]/c(=N\c2ccc(Oc3nccs3)cc2)n(Cc2ccc(Cl)cc2)c1=O [Compound I-2623]	506
CC(CO)(CO)Cn1c(=O)[nH]/c(=N\c2ccc(Oc3ccon3)c(F)c2)n(Cc2ccc(F)cc2)c1=O [Compound I-2574]	11
Cc1ccc(Cn2c(=O)n(C[C@H](C)C(=O)O)c(=O)[nH]/c2=N\c2ccc(OCC3CC3)cc2)cc1 [Compound I-0838]	33
CCn1c(=O)[nH]/c(=N\c2ccc(Oc3ccc(NC(=O)NC4CC4)nc3)cc2)n(Cc2ccc(Cl)cc2)c1=O [Compound I-2243]	6
CCOC(=O)CCn1c(=O)[nH]/c(=N\c2ccc(OC(C)C)c(Cl)c2)n(Cc2ccc(C)cc2)c1=O [Compound I-0866, 6-(3-chloro-4-isopropoxyphenylamino)-3-(2,3-ethoxycarbonylethyl)-1-(4-methylbenzyl)-1,3,5-triazinane-2,4-dion]	2
NC(=O)Cn1c(=O)[nH]/c(=N\c2ccc(Oc3ccnnc3)cc2)n(Cc2ccc(Cl)cc2)c1=O [Compound I-2695]	10
O=C(O)Cn1c(=O)[nH]/c(=N\c2ccc(Oc3ccnnc3)cc2)n(Cc2ccc(Cl)cc2)c1=O [Compound I-2665]	85
O=C(O)c1cncc(Oc2ccc(/N=c3\[nH]c(=O)n(C4CC4)c(=O)n3Cc3ccc(Cl)cc3)cc2)c1 [Compound I-2331]	7
CCc1nc2ccc(/N=c3\[nH]c(=O)n(CCC(=O)O)c(=O)n3Cc3ccc(Cl)cc3)cc2s1 [Compound I-1509]	14
Cc1ccc(Cn2c(=O)n(C[C@H](C)C(=O)O)c(=O)[nH]/c2=N\c2ccc(OC3CC3)cc2)cc1 [Compound I-1516]	49
Cc1ccc(Cn2c(=O)n(C[C@H](C)C(=O)O)c(=O)[nH]/c2=N\c2ccc(C3CC3)c(Cl)c2)cc1 [Compound I-1489]	254
CCn1c(=O)[nH]/c(=N\c2ccc(Oc3ccncc3)cc2)n(Cc2ccc(C)cc2)c1=O [Compound I-2573]	6
Cc1cncc(Oc2ccc(/N=c3\[nH]c(=O)n(CC(CO)CO)c(=O)n3Cc3ccc(Cl)cc3)cc2)n1 [Compound I-2709]	6
Cn1c(=O)[nH]/c(=N\c2ccc(Oc3ccon3)cc2)n(Cc2ccc(Cl)cc2)c1=O [Compound I-2356]	24
